± gives the standard deviation of the averaged measurements.
How the values were obtained:
Conditions in all cases: 24 h
U-2 OS [1] = assay: relative cell count vs DMSO (cell painting) (fraction of DMSO control); higher = more cells remaining (less cytotoxic)
In short: (§1)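 Cell painting used U-2 OS cells at about 1,500 per well in 384-well plates, treated by pin tool for 24 h at 37 °C, usually at six 2-fold concentrations from 20 μM to 625 nM. Cells were stained with MitoTracker, concanavalin A, phalloidin, wheat germ agglutinin, Hoechst and SYTO 14 and imaged on an Opera Phenix. Features were extracted with CellProfiler and normalized to DMSO cells on the same plate. The activity score is the Mahalanobis distance from DMSO wells; cell count is relative to DMSO wells. Values are means of four replicate plates.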

U-2 OS [2] = assay: cell painting activity score (Mahalanobis distance from DMSO wells); higher = stronger morphological phenotype
In short: as §1

U-2 OS [3] = assay: total intracellular glutathione (GSH + GSSG) relative to DMSO (% of control); higher = more glutathione
Protocol: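 Total intracellular glutathione (GSH + GSSG) in U-2 OS cells by GSH/GSSG-Glo after 24 h compound treatment at 5, 10 and 20 uM (some at 40 and 80 uM), as percent of DMSO control. Five technical replicate plates, averaged.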

U-2 OS [4] = assay: cell viability (CellTiter-Glo) relative to DMSO (% of control); higher = more viable
Protocol: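 Cell viability of U-2 OS cells by CellTiter-Glo after 24 h compound treatment at 5, 10 and 20 uM (some at 40 and 80 uM), measured in parallel with the glutathione assay, as percent of DMSO control. Five technical replicate plates, averaged.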

U-2 OS [5] = assay: intracellular GSH:GSSG ratio (calculated); higher = more reduced glutathione pool
Protocol: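 Intracellular glutathione in U-2 OS cells after 24 h compound treatment at 5, 10 and 20 uM (some at 40 and 80 uM). Total glutathione and GSSG were measured with the GSH/GSSG-Glo kit, and the GSH:GSSG ratio was calculated. Mean of five technical replicate plates.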

Row | Structure (SMILES) | relative cell count (U-2 OS [1]; 0.625 µM) | relative cell count (U-2 OS [1]; 1.25 µM) | relative cell count (U-2 OS [1]; 2.5 µM) | relative cell count (U-2 OS [1]; 5 µM) | relative cell count (U-2 OS [1]; 10 µM) | relative cell count (U-2 OS [1]; 20 µM) | cell painting activity score (U-2 OS [2]; 0.625 µM) | cell painting activity score (U-2 OS [2]; 1.25 µM) | cell painting activity score (U-2 OS [2]; 2.5 µM) | cell painting activity score (U-2 OS [2]; 5 µM) | cell painting activity score (U-2 OS [2]; 10 µM) | cell painting activity score (U-2 OS [2]; 20 µM) | total intracellular glutathione (U-2 OS [3]; 5 µM) | total intracellular glutathione (U-2 OS [3]; 10 µM) | total intracellular glutathione (U-2 OS [3]; 20 µM) | total intracellular glutathione (U-2 OS [3]; 40 µM) | total intracellular glutathione (U-2 OS [3]; 80 µM) | cell viability (U-2 OS [4]; 5 µM) | cell viability (U-2 OS [4]; 10 µM) | cell viability (U-2 OS [4]; 20 µM) | cell viability (U-2 OS [4]; 40 µM) | cell viability (U-2 OS [4]; 80 µM) | intracellular GSH:GSSG ratio (U-2 OS [5]; 5 µM) | intracellular GSH:GSSG ratio (U-2 OS [5]; 10 µM) | intracellular GSH:GSSG ratio (U-2 OS [5]; 20 µM) | intracellular GSH:GSSG ratio (U-2 OS [5]; 40 µM) | intracellular GSH:GSSG ratio (U-2 OS [5]; 80 µM) | relative cell count (U-2 OS [1]; 40 µM) | relative cell count (U-2 OS [1]; 80 µM) | cell painting activity score (U-2 OS [2]; 40 µM) | cell painting activity score (U-2 OS [2]; 80 µM)
1 | CC1=NN(c2ccc(C(=O)O)cc2)C(=O)/C1=C\c1ccc(-c2cc(C)c(C)cc2[N+](=O)[O-])o1 | 0.893 | 0.944 | 0.894 | 0.904 | 0.854 | 0.787 | 5.05 | 4.06 | 4.65 | 6.01 | 14.4 | 15 | 96 ± 2.5 | 105 ± 3.6 | 101 ± 4 | 102 ± 7.7 | 102 ± 5.6 | 91.3 ± 6.4 | 91.1 ± 2.4 | 96.4 ± 7.8 | 107 ± 8.1 | 90.6 ± 5.9 | 27.1 | 21.9 | 23.1 | 20 | 18.3 | – | – | – | –
2 | COc1cccc2c1C(=O)c1c(O)c3c(c(O)c1C2=O)C[C@@](O)(C(=O)CO)C[C@@H]3O[C@H]1C[C@H](N)[C@H](O)[C@H](C)O1 | 0.473 ± 0.035 | 0.5 ± 0.033 | 0.431 ± 0.044 | 0.404 ± 0.081 | 0.311 ± 0.025 | 0.2492 ± 0.0023 | 15.7 ± 0.51 | 17.8 ± 2.5 | 18.5 ± 2.1 | 19.7 ± 0.41 | 20.8 ± 0.47 | 24.3 ± 0.053 | 51.8 ± 7.2 | 34.9 ± 5.7 | 18.7 ± 1.3 | – | – | 54.3 ± 2.8 | 38.7 ± 6.3 | 21.7 ± 1.3 | – | – | 12.1 | 13 | 5.76 | – | – | – | – | – | –
3 | C[C@@H]1CC[C@@]2(OC1)O[C@H]1[C@@H](O)[C@H]3[C@@H]4CC[C@H]5C[C@@H](O[C@@H]6O[C@H](CO)[C@H](O[C@@H]7O[C@H](CO)[C@@H](O)[C@H](O[C@@H]8OC[C@@H](O)[C@H](O)[C@H]8O)[C@H]7O[C@@H]7O[C@H](CO)[C@H](O)[C@H](O[C@@H]8O[C@H](CO)[C@@H](O)[C@H](O)[C@H]8O)[C@H]7O)[C@H](O)[C@H]6O)[C@H](O)C[C@]5(C)[C@H]4CC[C@]3(C)[C@H]1[C@@H]2C | 0.85 | 0.742 | 0.753 | 0.19 | 0.117 | 0.0498 | 7.99 | 7.32 | 7.71 | 8.51 | 13.6 | 28.6 | 76.2 ± 7.3 | 45.1 ± 18 | 21 ± 4.2 | – | – | 64.5 ± 5.7 | 36.8 ± 12 | 8.23 ± 3.5 | – | – | 13.7 | 20.4 | 11.7 | – | – | – | – | – | –
4 | S=C(Nc1ccccc1)Nc1nc(-c2ccccc2)[n+](-c2ccccc2)s1 | 0.907 | 0.951 | 0.994 | 0.926 | 0.955 | 0.94 | 3.57 | 4.45 | 5.25 | 3.52 | 6.94 | 3.81 | 116 ± 14 | 96.7 ± 11 | 130 ± 9.9 | – | – | 91.8 ± 2.3 | 106 ± 3.2 | 97.5 ± 6.9 | – | – | 27.8 | 18.7 | 29 | – | – | – | – | – | –
5 | COc1cc(/C=C/C(=O)CC(=O)/C=C/c2ccc(O)c(OC)c2)ccc1O | 0.919 | 0.894 | 0.876 | 0.892 | 0.772 | 0.482 | 3.83 | 3.58 | 4.65 | 6.94 | 9.69 | 10.7 | 112 ± 20 | 116 ± 3.4 | 100 ± 5.8 | 44.2 ± 2.1 | 41.5 ± 3.5 | 101 ± 7.1 | 90 ± 6.6 | 70.2 ± 3.2 | 40.9 ± 2.8 | 36.2 ± 3.8 | 16.9 | 10.3 | 6.3 | 4.46 | 0.7 | – | – | – | –
6 | COc1ccc(/C(Cl)=C(/C=O)c2ccc(OC)cc2)cc1 | 0.912 | 0.934 | 0.941 | 0.937 | 0.849 | 0.395 | 6.48 | 7.76 | 8.89 | 10.2 | 11.7 | 14.5 | 115 ± 4.6 | 108 ± 6.8 | 51.8 ± 4.8 | 49.4 ± 2.6 | 8.12 ± 0.4 | 102 ± 5.1 | 87.1 ± 4.2 | 49.8 ± 6 | 44.2 ± 3.5 | 6.75 ± 0.88 | 22.2 | 14.8 | 3.39 | 4.6 | 1.06 | 0.442 | 0.0713 | 16.2 | 34
7 | C=C(C)[C@@H](CC=C(C)C)C[C@@]12C[C@@H](CC=C(C)C)C(C)(C)[C@@](CC=C(C)C)(C(=O)/C(=C(\O)c3ccc(O)c(O)c3)C1=O)C2=O | 0.996 | 0.96 | 0.961 | 0.986 | 0.836 | 0.53 | 5.64 | 4.81 | 6.25 | 5.03 | 9.54 | 9.17 | 96.4 ± 3.2 | 89 ± 1.9 | 76.7 ± 6.1 | 53.2 ± 8.8 | 5.32 ± 1.5 | 97 ± 2.7 | 101 ± 5.7 | 86.3 ± 7 | 44.8 ± 18 | 0.589 ± 0.13 | 21 | 16.1 | 24.5 | 21.3 | 0.823 | 0.267 | 0.116 | 14.9 | 28.1
8 | c1cc(SSc2ccns2)sn1 | 0.85 | 0.816 | 0.752 | 0.635 | 0.137 | 0.116 | 5.35 | 4.46 | 6.31 | 8.63 | 14.8 | 17.2 | 93.2 ± 6.5 | 67.1 ± 14 | 31.5 ± 34 | 25.6 ± 43 | 22.5 ± 43 | 94.5 ± 3.6 | 62.9 ± 10 | 29 ± 8.2 | 2.06 ± 0.76 | 0.459 ± 0.058 | 24.1 | 6.28 | 4.87 | 0.0649 | – | – | – | – | –
9 | C=C1C(=O)O[C@H](CCC)[C@H]1C(=O)O | 1.06 | 1.04 | 1.06 | 0.973 | 1.07 | 1.01 | 3.78 | 4.58 | 3.59 | 4.83 | 3.69 | 5.28 | 95.1 ± 3.1 | 90.6 ± 6.3 | 94.2 ± 5.9 | 97.6 ± 5.4 | 100 ± 4 | 91.7 ± 2.8 | 98.6 ± 6 | 95.5 ± 5.5 | 105 ± 3.7 | 105 ± 7.9 | 21.5 | 22.5 | 22.9 | 25.2 | 20.4 | – | – | – | –
10 | O=C1CC(Sc2nnnn2-c2ccccc2)C(=O)N1c1ccc([N+](=O)[O-])cc1 (stereo not drawn) | 1.06 | 1.07 | 1.12 | 1.01 | 0.828 | 0.677 | 4.41 | 4.65 | 4.9 | 6.88 | 12.5 | 18.1 | 117 ± 6.5 | 122 ± 5.5 | 61.8 ± 13 | – | – | 102 ± 5.5 | 104 ± 5.8 | 46.2 ± 11 | – | – | 26 | 17 | 7.14 | – | – | – | – | – | –
11 | CC1=C(CO)C(=O)O[C@H](C(C)[C@H]2CC[C@@H]3[C@H]4C[C@H]5O[C@@]56[C@@H](O)C=CC(=O)[C@@]6(C)C4CC[C@@]23C)C1 (stereo partly drawn) | 0.988 | 0.352 | 0.402 | 0.38 | 0.146 | 0.0181 | 10.3 | 16.1 | 17.1 | 17.6 | 29 | 20.3 | 43.6 ± 5.1 | 39.2 ± 4.1 | 32.8 ± 3.3 | – | – | 55.7 ± 8.4 | 42.7 ± 2 | 59.4 ± 12 | – | – | 1.55 | 4.28 | 0.143 | – | – | – | – | – | –
12 | COc1ccc(C[C@H](N)C(=O)N[C@H]2[C@@H](O)[C@H](n3cnc4c(N(C)C)ncnc43)O[C@@H]2CO)cc1 | 1.04 | 0.891 | 0.637 | 0.283 | 0.157 | 0.0622 | 13.8 | 17.7 | 20.2 | 25.3 | 32.9 | 33.9 | 12.5 ± 1.3 | 4.88 ± 0.7 | 4.55 ± 0.68 | – | – | 10.2 ± 1.6 | 2.46 ± 0.44 | 1.28 ± 0.26 | – | – | 3.09 | 1.12 | – | – | – | – | – | – | –
13 | C=CC(=O)Nc1cc2c(Nc3ccc(F)c(Cl)c3)ncnc2cc1OC | 1.02 | 1.06 | 1.05 | 0.989 | 1 | 0.992 | 5.64 | 6.77 | 6.2 | 7.6 | 7.34 | 7.33 | 99.7 ± 5.3 | 96.6 ± 3.8 | 94.5 ± 4.3 | – | – | 93.5 ± 3.4 | 91.9 ± 1.7 | 86.5 ± 2.2 | – | – | 19.9 | 24.8 | 20.5 | – | – | – | – | – | –
14 | C=CC(=O)Nc1cccc(Nc2nc(Nc3ccc(Oc4ccnc(C(=O)NC)c4)cc3)ncc2F)c1 | 1 | 0.96 | 0.987 | 0.953 | 0.961 | 0.93 | 4.92 | 4.2 | 6.51 | 4.99 | 8.06 | 9.39 | 64.2 ± 2 | 55.9 ± 4.7 | 5.78 ± 1.6 | – | – | 75.8 ± 3.4 | 59.5 ± 6.1 | 1.84 ± 1.1 | – | – | 17.7 | 5.85 | 2.15 | – | – | – | – | – | –
15 | CC1=CC(=O)c2ccccc2C1=O | 0.971 | 0.921 | 0.979 | 0.89 | 0.643 | 0.277 | 4.82 | 3.53 | 4.48 | 6.92 | 10.5 | 17.1 | 36.9 ± 4.5 | 4.53 ± 0.61 | 3.31 ± 0.24 | 2.94 ± 0.44 | 2.93 ± 0.45 | 40 ± 5.8 | 1.01 ± 0.2 | 1.22 ± 0.21 | 1.15 ± 0.15 | 0.692 ± 0.12 | 17.1 | 2.21 | 1.63 | 0.957 | 2.69 | – | – | – | –

From the supplement of paper PMC10011410
